Laboratory results as given in ChEMBL document CHEMBL4177529, “Penicilones A-D, Anti-MRSA Azaphilones from the Marine-Derived Fungus Penicillium janthinellum HK1-6” (2017).
In brackets after ≈: the same amount, converted by molar mass.

Tests used:
[1] = system: Staphylococcus aureus; test: Antibacterial activity against methicillin-resistant Staphylococcus aureus ATCC 43300 by XTT assay
[2] = system: Enterococcus faecalis; test: microbe, parasite or virus in culture; format: functional; settings: ATCC 51299
Description: Antibacterial activity against vancomycin-susceptible Enterococcus faecalis ATCC 51299 by XTT assay

[3] = system: Escherichia coli; test: Antibacterial activity against Escherichia coli ATCC 25922 by XTT assay; format: functional
[4] = system: Staphylococcus aureus; test: Antibacterial activity against methicillin-resistant Staphylococcus aureus ATCC 33591 by XTT assay
[5] = system: Staphylococcus aureus; test: Antibacterial activity against methicillin-susceptible Staphylococcus aureus ATCC 29213 by XTT assay
[6] = system: Staphylococcus aureus; test: Antibacterial activity against methicillin-susceptible Staphylococcus aureus ATCC 25923 by XTT assay
[7] = system: Enterococcus faecium; test: Antibacterial activity against vancomycin-susceptible Enterococcus faecium ATCC 35667 by XTT assay

SMILES	MIC [1] [µg/mL]	MIC [2] [µg/mL]	MIC [3] [µg/mL]	MIC [4] [µg/mL]	MIC [5] [µg/mL]	MIC [6] [µg/mL]	MIC [7] [µg/mL]
Cc1cccc(O)c1C1=CC2=CC(=O)[C@](C)(O)C(=O)C2=CO1	> 50	> 50	> 50	> 50	> 50	> 50	> 50
CCCCCCC(C)/C=C(\C)C(=O)O[C@@]1(C)C(=O)C2=COC(C3=C(C)CC(O)CC3=O)=CC2=C(Cl)C1=O (stereo partly specified)	6.25 (≈ 11.8 µM)	12.5 (≈ 23.5 µM)	> 50	6.25 (≈ 11.8 µM)	6.25 (≈ 11.8 µM)	12.5 (≈ 23.5 µM)	12.5 (≈ 23.5 µM)
Cc1cccc(O)c1C1=CC2=C(Cl)C(=O)[C@@](C)(O)C(=O)C2=CO1	> 50	50 (≈ 150 µM)	> 50	50 (≈ 150 µM)	> 50	25 (≈ 75.1 µM)	50 (≈ 150 µM)
CCCCCCC(C)/C=C(\C)C(=O)O[C@@]1(C)C(=O)C=C2C=C(C3=C(C)C[C@@H](O)CC3=O)OC=C2C1=O (stereo partly specified)	> 50	> 50	> 50	> 50	> 50	> 50	> 50
CCCCCCC(C)/C=C(\C)C(=O)O[C@@]1(C)C(=O)C=C2C=C(c3c(C)cccc3O)OC=C2C1=O (stereo partly specified)	3.13 (≈ 6.54 µM)	3.13 (≈ 6.54 µM)	> 50	3.13 (≈ 6.54 µM)	3.13 (≈ 6.54 µM)	3.13 (≈ 6.54 µM)	3.13 (≈ 6.54 µM)
CCCCCCC(C)/C=C(\C)C(=O)O[C@@]1(C)C(=O)C2=COC(c3c(C)cccc3O)=CC2=C(Cl)C1=O (stereo partly specified)	6.25 (≈ 12.2 µM)	6.25 (≈ 12.2 µM)	> 50	6.25 (≈ 12.2 µM)	3.13 (≈ 6.1 µM)	12.5 (≈ 24.4 µM)	12.5 (≈ 24.4 µM)
Cc1onc(-c2ccccc2)c1C(=O)N[C@@H]1C(=O)N2[C@@H]1SC(C)(C)[C@@H]2C(=O)[O-].[Na+]	> 100	50	> 100	> 100	3.13	0.78	> 100
CN[C@H](CC(C)C)C(=O)N[C@H]1C(=O)N[C@@H](CC(N)=O)C(=O)N[C@H]2C(=O)N[C@H]3C(=O)N[C@H](C(=O)N[C@H](C(=O)O)c4cc(O)cc(O)c4-c4cc3ccc4O)[C@H](O)c3ccc(c(Cl)c3)Oc3cc2cc(c3O[C@@H]2O[C@H](CO)[C@@H](O)[C@H](O)[C@H]2O[C@H]2C[C@](C)(N)[C@H](O)[C@H](C)O2)Oc2ccc(cc2Cl)[C@H]1O.Cl [VANCOMYCIN HYDROCHLORIDE]	0.39	6.25	> 100	0.78	0.39	1.56	0.39
